Assay results from PMC6471621, “Evaluation of the Anti-Trypanosomal Activity of Vietnamese Essential Oils, with Emphasis on Curcuma longa L. and Its Components” (Molecules, 2019).
In brackets after ≈: the same amount, converted by molar mass. Where two headings read alike, the source gives them in different places.

What was measured:
Trypanosoma brucei = conditions: read-out: Anti-trypanosomal IC50; cited from earlier work
[1] = Cytotoxicity assay (MTT) on J774; format: cell-based, murine; conditions: mouse
Protocol: (§1) The human non-cancer fibroblast cell line WI38 (ATCC Number CCL-75 – Standards, UK) and macrophage-like murine cell line J774 (ECACC Number 91051511 – Public Health England, UK) were grown in DMEM and RPMI medium (Gibco-Thermo Fisher Scientific, Merelbeke, Belgium or Sigma-Aldrich, Bornem, Belgium), respectively, supplemented with 10% fetal bovine serum and penicillin-streptomycin (100 UI/mL) (Sigma-Aldrich, Bornem, Belgium).
(§2) The cytotoxicity assays were performed as described previously with concentrations ranging from 50 to 1.40 nL/mL (dilution of 1.67). The selectivity index (SI) values were calculated using the formula:SI = IC50 on mammalian cells/IC50 on protozoan parasites

[2] = Cytotoxicity assay (MTT) on WI38; format: cell-based; conditions: human
Protocol: as §1, §2

Tbb bloodstream form = conditions: cited from earlier work
[3] = test system: CHO, WI38, Balb/3T3 fibroblast, and J774; parameters: method as in PMID 24269775, PMID 27529211, PMID 16557466; conditions: cited from earlier work
[4] = test system: Trypanosoma brucei brucei (Tbb, strain 427) bloodstream form; assay: Anti-trypanosomal assay (alamar blue, 72 h) on Tbb bloodstream form; format: cell-based; conditions: for IC50: Trypanosoma brucei, Tbb bloodstream form
Protocol: Trypanosoma brucei brucei, although not infecting humans because of its susceptibility to the innate immune system, has been used as a good predictive model in a first screening for the identification of anti-trypanosomal compounds [52, 53]. Bloodstream forms of this parasite (Tbb, strain 427) were grown in HMI-9 medium (IMDM-Gibco-Thermo Fisher Scientific, Merelbeke, Belgium-supplemented with 10% heat-inactivated fetal bovine serum (Sigma-Aldrich, Bornem, Belgium) and bloodstream form supporting factors).
The assay was performed in 96-well plates as previously described. The primary screening was repeated two times in triplicate at the concentrations of 50 nL/mL and 25 nL/mL (for 33 EOs) or 10 nL/mL and 5 nL/mL (for 4 EOs). Fifty µL of parasite culture (5 x 10^4 parasites/mL) was added with 50 µL of diluted EOs in each well. Ten µL of alamar blue (diluted with PBS at the ratio 1:1) was added to each well after 72 h of incubation and the plates were further incubated for 4 h. The fluorescence of the reduced reagent was measured on a spectrophotometer at 530 nm excitation and 590 nm emission wavelengths. Suramin was used as positive control. The EOs that inhibited more than 50% of the parasite growth at 25 or 10 nL/mL were analyzed for IC50 determination. Samples were tested in eight serial three-fold dilutions ranging from 50–0.02 nL/mL, except Cinnamomum cassia EO, Curcuma zedoaria EO, and Zingiber zerumbet EO (ranging from 10–0.005 nL/mL) and Dysphania ambrosioides EO (ranging from 5–0.002 nL/mL) in duplicate. IC50 values were calculated from dose response growth inhibition curves using Microsoft Excel files and mean IC50 values were obtained from at least three repetitions.

[5] = test system: different human cancer cells; conditions: cited from earlier work
[6] = highest tested concentration 50 µg/mL
[7] = J774 macrophage-like murine cells, pure compounds of C. longa EO, read-out: Cytotoxicity (IC50) J774
[8] = WI38 human non-cancer fibroblast cells, pure compounds of C. longa EO, read-out: Cytotoxicity (IC50) WI38
[9] = in Curcuma longa, pure compounds of C. longa EO, read-out: Anti-Trypanosomal Activity (IC50)

With COc1cc(/C=C/C(=O)CC(=O)/C=C/c2ccc(O)c(OC)c2)ccc1O [curcumin] as the compound, how does the IC50 (Trypanosoma brucei) read?
Its IC50 is ~5 µM.

With CC[C@@]1(O)C(=O)OCc2c1cc1n(c2=O)Cc2cc3ccccc3nc2-1 [Camptothecin, reference compound] as the compound, how does the IC50 ([1]; J774 macrophage-like murine cells, positive control, read-out: Cytotoxicity (IC50) J774) read?
The IC50 was 0.00732 ± 0.00129 µg/mL (≈ 0.021 µM).

And the IC50 ([2]; WI38 human non-cancer fibroblast cells, positive control, read-out: Cytotoxicity (IC50) WI38)?
The IC50 was 0.035 ± 0.00963 µg/mL (≈ 0.1 µM).

Which results are given for C=CC(C)(O)CCC=C(C)C (stereo not drawn) [linalool]?
Anti-trypanosomal IC50 (Tbb bloodstream form; Tbb bloodstream form, ref 30): 2.5 µg/mL; Cytotoxicity at the highest tested concentration ([3]; highest tested concentration 100 µg/mL): did not show any cytotoxicity

For COc1cc(/C=C/C(O)=C/C(=O)/C=C/c2ccc(O)cc2)ccc1O [demethoxycurcumin], which IC50 (Trypanosoma brucei) is on record?
Its IC50 is 7.19 ± 1.02 µM.

With CC(C)=CCCC(C)CCO (stereo not drawn) [citronellol] as the compound, how does the “Anti-trypanosomal IC50” value (Tbb bloodstream form; Tbb bloodstream form, ref 28) read?
The value was 6.45 ± 4.86 µg/mL.

And the “Cytotoxicity at the highest tested concentration” value [3, 6]?
Its value is “did not show any cytotoxicity”.

For CC(C)=CCCC(C)c1ccc(C)cc1 (stereo not drawn) [ar-Curcumene], which IC50 [1, 7] is on record?
The IC50 was 24 ± 2.64 µg/mL (≈ 119 µM).

What about the IC50 [2, 8] of the same compound?
The IC50 was 23.1 ± 1.36 µg/mL (≈ 114 µM).

What about the IC50 [4, 9] of the same compound?
Its IC50 is 13.4 ± 2.46 µg/mL.

With CC(C)=C1C/C=C(\C)CC/C=C(\C)CC1=O [Germacrone] as the compound, how does the “Anti-trypanosomal IC50” value (Tbb bloodstream form; Tbb bloodstream form, ref 32) read?
Its value is > 100 µg/mL.

With CC(C)=CC(=O)CC(C)c1ccc(C)cc1 (stereo not drawn) [ar-Turmerone] as the compound, how does the IC50 [1] read?
Its IC50 is 44.6 ± 1.41 µg/mL (≈ 206 µM).

And the “Apoptotic effects (release of mitochondrial cytochrome c, activation of capase-3)” value ([5]; at 40, 80, and 120 µg/mL)?
The value was “apoptotic effects”.

What about the IC50 [2] of the same compound?
The IC50 was 43.4 ± 3.89 µg/mL (≈ 201 µM).

And the IC50 [4, 9]?
The IC50 was 28.8 ± 3.93 µg/mL.

With O=C(/C=C/c1ccc(O)cc1)CC(=O)/C=C/c1ccc(O)cc1 [bisdemethoxycurcumin] as the compound, how does the IC50 (Trypanosoma brucei) read?
Its IC50 is 9.84 ± 0.84 µM.

For C=C1C=CC(C(C)CCC=C(C)C)CC1 (stereo not drawn) [β-Sesquiphellandrene], which IC50 [1, 7] is on record?
Its IC50 is 21 ± 2.72 µg/mL (≈ 103 µM).

And the “Apoptotic effects (release of mitochondrial cytochrome c, activation of capase-3)” value ([5]; at 5.10 µg/mL)?
Its value is “apoptotic effects”.

What about the IC50 [2, 8] of the same compound?
Its IC50 is 19.1 ± 1.58 µg/mL (≈ 93.5 µM).

And the IC50 [4, 9]?
Its IC50 is 9.89 ± 1.18 µg/mL.

Which results are given for C=C(C)[C@H]1CC=C(C)CC1 [limonene]?
Anti-trypanosomal IC50 (Tbb bloodstream form; Tbb bloodstream form, ref 28): 4.24 ± 1.27 µg/mL; Anti-trypanosomal IC50 (Tbb bloodstream form; Tbb bloodstream form, ref 29): 5.6 ± 1.6 µg/mL

What does the source list for C=C1C=CC(C(C)CC(=O)C=C(C)C)CC1 (stereo not drawn) [Curlone]?
IC50 [1, 7]: 25.1 ± 3.47 µg/mL (≈ 115 µM); IC50 [2, 8]: 43.6 ± 2.45 µg/mL (≈ 200 µM); IC50 [4, 9]: 1.38 ± 0.52 µg/mL; IC50 ([4]; read-out: Anti-trypanosomal IC50): 6.32 µM; SI compared to cytotoxicity ([4]; compared to cytotoxicity on mammalian cells (WI38 and J774)): > 10

With Cc1ccc(C(=O)Nc2ccc(S(=O)(=O)O)c3cc(S(=O)(=O)O)cc(S(=O)(=O)O)c23)cc1NC(=O)c1cccc(NC(=O)Nc2cccc(C(=O)Nc3cc(C(=O)Nc4ccc(S(=O)(=O)O)c5cc(S(=O)(=O)O)cc(S(=O)(=O)O)c45)ccc3C)c2)c1 [Suramin, reference compound] as the compound, how does the IC50 ([4]; positive control, read-out: Anti-Trypanosomal Activity (IC50)) read?
The IC50 was 0.0215 ± 0.00262 µg/mL.

For CC12CCC(CC1)C(C)(C)O2 [eucalyptol], which “Anti-trypanosomal IC50” value (Tbb bloodstream form; Tbb) is on record?
Its value is 83.15 µg/mL.

For C=C1C2CCC(C2)C1(C)C (stereo not drawn) [camphene], which “Anti-trypanosomal IC50” value (Tbb bloodstream form; Tbb bloodstream form, ref 41) is on record?
Its value is 80.66 ± 0.87 µg/mL.

Which results are given for CC(C)=CCC[C@@H](C)CC=O [citronellal]?
Anti-trypanosomal IC50 (Tbb bloodstream form; Tbb bloodstream form, ref 28): 2.76 ± 1.55 µg/mL; Cytotoxicity at the highest tested concentration [3, 6]: did not show any cytotoxicity
